Earlier results as cited in patent publication EP0547334A1, “Combination of calcium antagonists with cholinesterase inhibitors for the treatment of senile demention” (priority 1991, dated 1993).

Test system: Ratten
Conditions: Metrifonat 1 mg/kg alone, oral, rats; literature statement (Schmidt, de Jonge 1991)

COP(=O)(OC)C(O)C(Cl)(Cl)Cl (stereo not shown) [Metrifonat]
Wirkung: keine Wirkung
